From PubChem BioAssay (NCI)
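Cells were grown in 96-well plates and exposed to each compound for 48 hours at five concentrations; endpoints were interpolated linearly between bracketing concentrations, or set to the highest concentration if not reached. GI50 is the concentration that inhibits growth by half. TGI is the concentration that stops growth completely.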

Tests used:
Experiment in all cases: NCI anticancer screen, dose series, 48 h
ACHN renal = tested on: ACHN renal
HCT-116 colon = tested on: HCT-116 colon
HCT-15 colon = tested on: HCT-15 colon
MOLT-4 leukemia = tested on: MOLT-4 leukemia
OVCAR-3 ovarian = tested on: OVCAR-3 ovarian
PC-3 prostate = tested on: PC-3 prostate
SF-295 CNS = tested on: SF-295 CNS
SK-MEL-28 melanoma = tested on: SK-MEL-28 melanoma
SNB-75 CNS = tested on: SNB-75 CNS
UACC-62 melanoma = tested on: UACC-62 melanoma

SMILES: COc1cccc(-c2nn(-c3ccccc3)cc2-c2ccnc(NCCCNS(=O)(=O)c3cccc(F)c3)c2)c1
- GI50 (ACHN renal): 3.56 µM
- TGI (ACHN renal): > 100 µM
- GI50 (HCT-116 colon): 3.67 µM
- TGI (HCT-116 colon): > 100 µM
- GI50 (HCT-15 colon): 2.89 µM
- TGI (HCT-15 colon): > 100 µM
- GI50 (MOLT-4 leukemia): 2.64 µM
- TGI (MOLT-4 leukemia): 8 µM
- GI50 (OVCAR-3 ovarian): 4.88 µM
- TGI (OVCAR-3 ovarian): > 100 µM
- GI50 (PC-3 prostate): 2.97 µM
- TGI (PC-3 prostate): > 100 µM
- GI50 (SF-295 CNS): 2.94 µM
- TGI (SF-295 CNS): > 100 µM
- GI50 (SK-MEL-28 melanoma): 6.82 µM
- TGI (SK-MEL-28 melanoma): > 100 µM
- GI50 (SNB-75 CNS): 4.57 µM
- TGI (SNB-75 CNS): > 100 µM
- GI50 (UACC-62 melanoma): 4.65 µM
- TGI (UACC-62 melanoma): > 100 µM

SMILES: COc1cc2c(NCCCCCCO[N+](=O)[O-])ncnc2c(OC)c1OC
- TGI (ACHN renal): > 100 µM
- TGI (HCT-116 colon): 62.5 µM
- TGI (HCT-15 colon): 72.7 µM
- TGI (MOLT-4 leukemia): > 61.9 µM
- TGI (OVCAR-3 ovarian): > 78 µM
- TGI (PC-3 prostate): 63.4 µM
- TGI (SF-295 CNS): 58.8 µM
- TGI (SK-MEL-28 melanoma): > 83 µM
- TGI (SNB-75 CNS): 99.3 µM
- TGI (UACC-62 melanoma): 43.6 µM

SMILES: COc1cc2c(c(O)c1C)C(=O)C(Cl)=CC2=O
- TGI (ACHN renal): 13.9 µM
- TGI (HCT-116 colon): 22.6 µM
- TGI (HCT-15 colon): 27.6 µM
- TGI (MOLT-4 leukemia): 8.66 µM
- TGI (OVCAR-3 ovarian): 24.3 µM
- TGI (PC-3 prostate): 28.7 µM
- TGI (SF-295 CNS): 34.4 µM
- TGI (SK-MEL-28 melanoma): 35.1 µM
- TGI (SNB-75 CNS): 31.5 µM
- TGI (UACC-62 melanoma): 13.8 µM

SMILES: CCN1CCN(c2nc(NCCNc3ccnc4cc(Cl)ccc34)c3ccccc3n2)CC1
- GI50 (ACHN renal): 1.93 µM
- TGI (ACHN renal): 3.89 µM
- GI50 (HCT-116 colon): 1.1 µM
- TGI (HCT-116 colon): 6.13 µM
- GI50 (HCT-15 colon): 1.52 µM
- TGI (HCT-15 colon): 5.25 µM
- GI50 (MOLT-4 leukemia): 2.13 µM
- TGI (MOLT-4 leukemia): 7.17 µM
- GI50 (OVCAR-3 ovarian): 1.87 µM
- TGI (OVCAR-3 ovarian): 4.2 µM
- GI50 (PC-3 prostate): 2.4 µM
- TGI (PC-3 prostate): 15.7 µM
- GI50 (SF-295 CNS): 1.33 µM
- TGI (SF-295 CNS): 2.74 µM
- GI50 (SK-MEL-28 melanoma): 2.04 µM
- TGI (SK-MEL-28 melanoma): 3.81 µM
- GI50 (SNB-75 CNS): 1.94 µM
- TGI (SNB-75 CNS): 5.85 µM
- GI50 (UACC-62 melanoma): 1.41 µM
- TGI (UACC-62 melanoma): 2.94 µM

SMILES: OC(c1cccc(C(F)(F)F)c1)c1cnccc1NC1CCCCCC1 (stereo not given)
- GI50 (ACHN renal): 1.69 µM
- TGI (ACHN renal): 3.24 µM
- GI50 (HCT-116 colon): 1.65 µM
- TGI (HCT-116 colon): 3.18 µM
- GI50 (HCT-15 colon): 1.81 µM
- TGI (HCT-15 colon): 3.54 µM
- GI50 (MOLT-4 leukemia): 2.3 µM
- TGI (MOLT-4 leukemia): 6.19 µM
- GI50 (OVCAR-3 ovarian): 2.35 µM
- TGI (OVCAR-3 ovarian): 6.23 µM
- GI50 (PC-3 prostate): 1.53 µM
- TGI (PC-3 prostate): 4.65 µM
- GI50 (SF-295 CNS): 1.52 µM
- TGI (SF-295 CNS): 3.06 µM
- GI50 (SK-MEL-28 melanoma): 1.73 µM
- TGI (SK-MEL-28 melanoma): 3.24 µM
- GI50 (SNB-75 CNS): 1.77 µM
- TGI (SNB-75 CNS): 8.25 µM
- GI50 (UACC-62 melanoma): 1.5 µM
- TGI (UACC-62 melanoma): 3.06 µM

SMILES: CN1CCN(Cc2ccc(NC(=O)c3cncc(C#Cc4cnc(N)c5ccccc45)c3)cc2C(F)(F)F)CC1
- GI50 (ACHN renal): 0.145 µM
- TGI (ACHN renal): 0.523 µM
- GI50 (HCT-116 colon): 0.16 µM
- TGI (HCT-116 colon): 0.581 µM
- GI50 (HCT-15 colon): 0.124 µM
- TGI (HCT-15 colon): 0.534 µM
- GI50 (MOLT-4 leukemia): 0.164 µM
- TGI (MOLT-4 leukemia): 1.16 µM
- GI50 (OVCAR-3 ovarian): 0.41 µM
- TGI (OVCAR-3 ovarian): 0.967 µM
- GI50 (PC-3 prostate): 0.442 µM
- TGI (PC-3 prostate): 1.36 µM
- GI50 (SF-295 CNS): 0.486 µM
- TGI (SF-295 CNS): 0.955 µM
- GI50 (SK-MEL-28 melanoma): 0.513 µM
- TGI (SK-MEL-28 melanoma): 0.988 µM
- GI50 (SNB-75 CNS): 0.443 µM
- TGI (SNB-75 CNS): 0.877 µM
- GI50 (UACC-62 melanoma): 0.587 µM
- TGI (UACC-62 melanoma): 1.16 µM

SMILES: C[C@@H]1Cc2c([nH]c3ccccc23)[C@@H](c2c(F)cc(/C=C/C(=O)O)cc2F)N1CC(C)(C)F
- GI50 (ACHN renal): 12.7 µM
- TGI (ACHN renal): 28 µM
- GI50 (HCT-116 colon): 12.7 µM
- TGI (HCT-116 colon): 26.7 µM
- GI50 (HCT-15 colon): 8.14 µM
- TGI (HCT-15 colon): 24.3 µM
- GI50 (MOLT-4 leukemia): 11.2 µM
- TGI (MOLT-4 leukemia): 34.9 µM
- GI50 (OVCAR-3 ovarian): 13.8 µM
- TGI (OVCAR-3 ovarian): 29.1 µM
- GI50 (PC-3 prostate): 10.2 µM
- TGI (PC-3 prostate): 27.4 µM
- GI50 (SF-295 CNS): 8.65 µM
- TGI (SF-295 CNS): 22.6 µM
- GI50 (SK-MEL-28 melanoma): 13.1 µM
- TGI (SK-MEL-28 melanoma): 30.9 µM
- GI50 (SNB-75 CNS): 12.9 µM
- TGI (SNB-75 CNS): 28.6 µM
- GI50 (UACC-62 melanoma): 3.9 µM
- TGI (UACC-62 melanoma): 17.3 µM
